For 1 compound, punished responding results are on record in patent publication US5834494A, “Pyridylcarbamoyl Indolines” (SmithKline Beecham p.l.c., priority 1993, dated 1998).

The assay in a line: Geller Seifter Procedure. Type of assay: in vivo. Particulars: dose range 0.5-10 mg/kg p.o.; procedure of WO 94/04533. The protocol:
The compound of example 2 was tested following the procedure outlined in WO 94/04533.

In the case of `Cc1cc2c(cc1Cl)N(C(=O)Nc1cccnc1)CC2` [Example 2, 6-Chloro-5-methyl-1-(3-pyridycarbamoyl)indoline], the punished responding entry was “significant increase in punished responding”.
